Measured values from US6737383B1, “Herbicidal oxadiazolidines” (priority 1999, dated 2004).

How the values were obtained:
[1] = test system: surinam grass; experiment: Test B pre/postemergence surinam grass; assay type: in vivo, Brachiaria decumbens
Method in brief: (§1)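 Response is a visual 0-to-10 score relative to untreated plants, where 0 means no effect and 10 means complete control, taken twelve to sixteen days after application. Treatments went onto soil at planting and onto foliage of 1- to 4-leaf plants, using a surfactant-containing non-phytotoxic solvent.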

[2] = test system: cocklebur; experiment: Test B pre/postemergence cocklebur; assay type: in vivo, Xanthium strumarium
Method in brief: as §1

[3] = test system: duck salad; experiment: Test B flood test duck salad; assay type: in vivo, Heteranthera limosa; conditions: Pre-emergence
Method in brief: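 Plants were grown to the 2-leaf stage before treatment with test chemical, then held in a greenhouse for twelve to sixteen days. Injury was visually rated against untreated controls on a 0–10 scale, where 0 is no effect and 10 is complete control.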

[4] = test system: crabgrass; experiment: Test B pre/postemergence crabgrass; assay type: in vivo, Digitaria sanguinalis
Method in brief: as §1

[5] = test system: bedstraw; experiment: Test B pre/postemergence bedstraw; assay type: in vivo, Galium aparine
Method in brief: as §1

[6] = test system: velvetleaf; experiment: Test B pre/postemergence velvetleaf; assay type: in vivo, Abutilon theophrasti
Method in brief: as §1

[7] = test system: giant foxtail; experiment: Test B pre/postemergence giant foxtail; assay type: in vivo, Setaria faberii
Method in brief: as §1

[8] = test system: rape; experiment: Test B pre/postemergence rape; assay type: in vivo, Brassica napus
Method in brief: as §1

[9] = test system: corn; experiment: Test B pre/postemergence corn; assay type: in vivo, Zea mays
Method in brief: as §1

[10] = test system: pigweed; experiment: Test B pre/postemergence pigweed; assay type: in vivo, Amaranthus retroflexus
Method in brief: as §1

[11] = test system: wheat; experiment: Test B pre/postemergence wheat; assay type: in vivo, Triticum aestivum
Method in brief: as §1

[12] = test system: purple nutsedge; experiment: Test B pre/postemergence purple nutsedge; assay type: in vivo, Cyperus rotundus
Method in brief: as §1

[13] = test system: morningglory; experiment: Test B pre/postemergence morningglory; assay type: in vivo, Ipomoea hederacea
Method in brief: as §1

[14] = test system: soybean; experiment: Test B pre/postemergence soybean; assay type: in vivo, Glycine max
Method in brief: as §1

[15] = test system: sugar beet; experiment: Test B pre/postemergence sugar beet; assay type: in vivo, Beta vulgaris
Method in brief: as §1

[16] = Postemergence, Rate 125 g/ha, scale 0 to 10, 0 is no effect, 10 is complete control
[17] = Preemergence, Rate 62 g/ha, scale of 0 to 10 where 0 is no effect and 10 is complete control
[18] = Preemergence, Rate 250 g/ha, scale of 0 to 10 where 0 is no effect and 10 is complete control
[19] = Preemergence, Rate 500 g/ha, scale of 0 to 10 where 0 is no effect and 10 is complete control
[20] = Rate 62 g/ha, Postemergence, scale 0 to 10 (0 no effect, 10 complete control)
[21] = Rate 250 g/ha, Postemergence, scale of 0 to 10 where 0 is no effect and 10 is complete control
[22] = Rate 500 g/ha, Postemergence, scale 0 to 10, 0 no effect, 10 complete control

CC(C)N(C(=O)n1oc(=O)n(-c2ccc3ccccc3c2)c1=O)c1ccc(Cl)cc1 [Compound 333]
Plant response rating, B. signalgrass [1, 16]: 0
B. signalgrass plant response rating [1, 17]: 0
B. signalgrass plant response rating (0 to 10 scale, 0 is no effect, 10 is complete control) ([1]; Preemergence, Rate 125 g/ha): 0
B. signalgrass plant response rating [1, 18]: 0
B. signalgrass plant response rating [1, 19]: 0
B. signalgrass plant response rating [1, 20]: 0
Plant response rating, B. signalgrass [1, 21]: 0
Plant response rating, B. signalgrass [1, 22]: 0
Plant response rating, Cocklebur [2, 16]: 0
Cocklebur plant response rating [2, 17]: 0
Cocklebur plant response rating (0 to 10 scale) ([2]; Preemergence, Rate 125 g/ha): 0
Cocklebur plant response rating [2, 18]: 0
Cocklebur plant response rating [2, 19]: 0
Cocklebur plant response rating [2, 20]: 0
Plant response rating, Cocklebur [2, 22]: 0
Ducksalad plant response rating ([3]; Rate 1000 g/ha, scale 0 to 10 (0 no effect, 10 complete control)): 0
Ducksalad plant response rating ([3]; Rate 125 g/ha, flood test species, scale 0 to 10 where 0 is no effect and 10 is complete control): 0
Ducksalad plant response rating ([3]; Rate 250 g/ha, flood-test species, scale 0 to 10, 0 is no effect, 10 is complete control): 0
Ducksalad plant response rating ([3]; Rate 500 g/ha, flood test species, scale 0 to 10 (0 no effect, 10 complete control)): 0
Plant response rating, Crabgrass [4, 16]: 0
Crabgrass plant response rating [4, 17]: 0
Crabgrass plant response rating (0 to 10 scale) ([4]; Preemergence, Rate 125 g/ha): 0
Crabgrass plant response rating [4, 18]: 0
Crabgrass plant response rating [4, 19]: 3
Crabgrass plant response rating [4, 20]: 0
Plant response rating, Crabgrass [4, 22]: 0
Plant response rating, Bedstraw [5, 16]: 0
Bedstraw plant response rating [5, 17]: 0
Bedstraw plant response rating (0 to 10 scale) ([5]; Preemergence, Rate 125 g/ha): 0
Bedstraw plant response rating [5, 18]: 0
Bedstraw plant response rating [5, 19]: 0
Bedstraw plant response rating [5, 20]: 0
Plant response rating, Bedstraw [5, 21]: 0
Plant response rating, Bedstraw [5, 22]: 0
Plant response rating, Velvetleaf [6, 16]: 0
Velvetleaf plant response rating [6, 17]: 0
Velvetleaf plant response rating (0 to 10 scale) ([6]; Preemergence, Rate 125 g/ha): 0
Velvetleaf plant response rating [6, 18]: 0
Velvetleaf plant response rating [6, 19]: 0
Velvetleaf plant response rating [6, 20]: 0
Plant response rating, Velvetleaf [6, 22]: 0
Plant response rating, Giant foxtail [7, 16]: 0
Giant foxtail plant response rating [7, 17]: 0
Giant foxtail plant response rating (0 to 10 scale) ([7]; Preemergence, Rate 125 g/ha): 0
Giant foxtail plant response rating [7, 18]: 0
Giant foxtail plant response rating [7, 19]: 2
Giant foxtail plant response rating [7, 20]: 0
Plant response rating, Giant foxtail [7, 22]: 0
Plant response rating, Rape [8, 16]: 0
Rape plant response rating [8, 17]: 0
Rape plant response rating (0 to 10 scale) ([8]; Preemergence, Rate 125 g/ha): 0
Rape plant response rating [8, 18]: 0
Rape plant response rating [8, 19]: 0
Rape plant response rating [8, 20]: 0
Plant response rating, Rape [8, 22]: 0
Plant response rating, Corn [9, 16]: 0
Corn plant response rating [9, 17]: 0
Corn plant response rating (0 to 10 scale) ([9]; Preemergence, Rate 125 g/ha): 0
Corn plant response rating [9, 18]: 0
Corn plant response rating [9, 19]: 0
Corn plant response rating [9, 20]: 0
Plant response rating, Corn [9, 22]: 0
Plant response rating, Redroot pigweed [10, 16]: 0
Redroot pigweed plant response rating [10, 17]: 0
Redroot pigweed plant response rating (0 to 10 scale) ([10]; Preemergence, Rate 125 g/ha): 0
Redroot pigweed plant response rating [10, 18]: 0
Redroot pigweed plant response rating [10, 19]: 0
Redroot pigweed plant response rating [10, 20]: 0
Plant response rating, Redroot pigweed [10, 22]: 0
Plant response rating, Wheat [11, 16]: 0
Wheat plant response rating [11, 17]: 0
Wheat plant response rating (0 to 10 scale) ([11]; Preemergence, Rate 125 g/ha): 0
Wheat plant response rating [11, 18]: 0
Wheat plant response rating [11, 19]: 0
Wheat plant response rating [11, 20]: 0
Plant response rating, Wheat [11, 22]: 0
Plant response rating, Nutsedge [12, 16]: 0
Nutsedge plant response rating [12, 17]: 0
Nutsedge plant response rating (0 to 10 scale) ([12]; Preemergence, Rate 125 g/ha): 0
Nutsedge plant response rating [12, 18]: 0
Nutsedge plant response rating [12, 19]: 0
Nutsedge plant response rating [12, 20]: 0
Plant response rating, Nutsedge [12, 22]: 0
Plant response rating, Morningglory [13, 16]: 0
Morningglory plant response rating [13, 17]: 0
Morningglory plant response rating (0 to 10 scale) ([13]; Preemergence, Rate 125 g/ha): 0
Morningglory plant response rating [13, 18]: 0
Morningglory plant response rating [13, 19]: 0
Morningglory plant response rating [13, 20]: 0
Plant response rating, Morningglory [13, 22]: 0
Plant response rating, Soybean [14, 16]: 2
Soybean plant response rating [14, 17]: 0
Soybean plant response rating (0 to 10 scale) ([14]; Preemergence, Rate 125 g/ha): 0
Soybean plant response rating [14, 18]: 0
Soybean plant response rating [14, 19]: 0
Soybean plant response rating [14, 20]: 2
Plant response rating, Soybean [14, 22]: 4
Plant response rating, Sugarbeets [15, 16]: 0
Sugarbeets plant response rating [15, 17]: 0
Sugarbeets plant response rating (0 to 10 scale) ([15]; Preemergence, Rate 125 g/ha): 0
Sugarbeets plant response rating [15, 18]: 0
Sugarbeets plant response rating [15, 19]: 0
Sugarbeets plant response rating [15, 20]: 0
Plant response rating, Sugarbeets [15, 22]: 0
